This note sets out measurements from patent US20040005256A1, “Crystallization system utilizing atomization” (priority 2002, published 2004).

The structures appear in SMILES notation.

This series is described as follows: maximum concentration of D,L-Threonine dissolved in water. Type of series: physicochemical. The conditions noted are these: solid dissolved in water (solvent) before atomization into acetone anti-solvent. How it is done: For example, the material-containing solution may be composed of a solvent, such as water, and a material to be crystallized, such as D,L-Threonine, dissolved in the water. The anti-solvent could be acetone. The solid D,L-Threonine is dissolved at its maximum concentration ratio (160 g/L) in water. The D,L-Threonine solution is atomized and introduced into the acetone. The atomized solution and the acetone are then mixed to produce the crystallized product.

For `C[C@@H](O)[C@H](N)C(=O)O` (racemic) [D,L-Threonine], the “maximum concentration ratio in water” value was 160 g/L.
